{
  "source": "ChEMBL document CHEMBL1154161",
  "about": "“Synthesis, kinetic studies and pharmacological evaluation of mutual azo prodrugs of 5-aminosalicylic acid for colon-specific drug delivery in inflammatory bowel disease” (Eur J Med Chem, 2009)",
  "key": {"[1]": {"test_system": "Rattus norvegicus", "assay": "Antiarthritic activity against Freund's adjuvant-induced arthritis in Wistar rat assessed as reduction in paw volume administered 13 days after Freund's adjuvant challenge measured on day 21", "assay_type": "functional", "set-up": "concentration or dose not given beside the values"}, "[2]": {"test_system": "Rattus norvegicus", "assay": "Gastrointestinal toxicity in Wistar rat assessed as ulcer index at 1154.3 mg/kg, po by Rainsford's cold stress method", "assay_type": "organism-based", "set-up": "dose 1154.3 mg/kg, route oral", "conditions": "in vivo"}, "[3]": {"test_system": "Rattus norvegicus", "assay": "Antiinflammatory activity against trinitrobenzenesulfonic acid-induced colitis in Wistar rat assessed as decrease in inflammatory cell infiltration at 100 mg/kg, po measured 24 hrs after last dose on day 11 by haematoxylin/eosin staining", "assay_type": "functional, organism-based", "set-up": "dose 100 mg/kg"}, "[4]": {"test_system": "Rattus norvegicus", "assay": "Antiinflammatory activity against trinitrobenzenesulfonic acid-induced colitis in Wistar rat at 100 mg/kg, administered rectally in presence of 5-aminosalicylic acid", "assay_type": "functional, organism-based", "set-up": "dose 100 mg/kg"}, "[5]": {"test_system": "Rattus norvegicus", "assay": "Antiinflammatory activity against trinitrobenzenesulfonic acid-induced colitis in Wistar rat at 100 mg/kg, po", "assay_type": "functional, organism-based", "set-up": "dose 100 mg/kg"}, "[6]": {"test_system": "Rattus norvegicus", "assay": "Antiinflammatory activity against trinitrobenzenesulfonic acid-induced colitis in Wistar rat assessed as decrease in inflammatory cell infiltration at 100 mg/kg administered rectally measured 24 hrs after last dose on day 11 by haematoxylin/eosin staining in presence of sulfasalazine", "assay_type": "functional, organism-based", "set-up": "dose 100 mg/kg"}, "[7]": {"test_system": "Rattus norvegicus", "assay": "Antiinflammatory activity against trinitrobenzenesulfonic acid-induced colitis in Wistar rat assessed as decrease in appearance of mucosal abscess at 100 mg/kg, po measured 24 hrs after last dose on day 11 by haematoxylin/eosin staining", "assay_type": "functional, organism-based", "set-up": "dose 100 mg/kg"}, "[8]": {"test_system": "Rattus norvegicus", "assay": "Antiinflammatory activity against trinitrobenzenesulfonic acid-induced colitis in Wistar rat assessed as decrease in appearance of mucosal abscess at 100 mg/kg administered rectally measured 24 hrs after last dose on day 11 by haematoxylin/eosin staining", "assay_type": "functional, organism-based", "set-up": "dose 100 mg/kg"}, "[9]": {"test_system": "Rattus norvegicus", "assay": "Gastrointestinal toxicity in Wistar rat assessed as ulcer index at 2829 mg/kg, po by Rainsford's cold stress method", "assay_type": "organism-based", "set-up": "dose 2829 mg/kg, route oral", "conditions": "in vivo"}, "[10]": {"assay": "Stability in phosphate buffer of pH 7.4 assessed as drug release after 7 hrs", "assay_type": "physicochemical", "conditions": "pH 7.4, 7 h"}, "[11]": {"assay": "Partition coefficient, log P in n-octanol/phosphate buffer of pH 7.4", "assay_type": "physicochemical"}, "[12]": {"test_system": "Rattus norvegicus", "assay": "Antiinflammatory activity against trinitrobenzenesulfonic acid-induced colitis in Wistar rat assessed as decrease in colonic myeloperoxidase activity at 100 mg/kg, po measured 24 hrs after last dose on day 11 by spectrometry", "assay_type": "functional, organism-based", "set-up": "dose 100 mg/kg"}, "[13]": {"assay": "Aqueous solubility of the compound", "assay_type": "physicochemical", "conditions": "aqueous medium"}, "[14]": {"test_system": "Rattus norvegicus", "assay": "Antiinflammatory activity against trinitrobenzenesulfonic acid-induced colitis in Wistar rat at 100 mg/kg, administered rectally", "assay_type": "functional, organism-based", "set-up": "dose 100 mg/kg"}, "[15]": {"assay": "Stability in rat feces assessed as half life at 250 ug/mL by UV spectrophotometry in presence of azo reductase", "assay_type": "ADME, tissue-based"}, "[16]": {"assay": "Stability in rat feces assessed as cumulated 5-aminosalicylic acid release measured for 6 to 7 hrs by UV spectrophotometry in presence of azo reductase", "assay_type": "ADME, tissue-based"}, "[17]": {"assay": "Stability in 0.05 M hydrochloric acid buffer of pH 1.2", "assay_type": "physicochemical"}, "[18]": {"test_system": "Rattus norvegicus", "assay": "Antiinflammatory activity against trinitrobenzenesulfonic acid-induced colitis in Wistar rat assessed as decrease in colon to body weight ratio at 100 mg/kg, po measured 24 hrs after last dose on day 11", "assay_type": "functional, organism-based", "set-up": "dose 100 mg/kg"}, "[19]": {"test_system": "Rattus norvegicus", "assay": "Gastrointestinal toxicity in Wistar rat assessed as ulcer index at 3000 mg/kg, po by Rainsford's cold stress method", "assay_type": "organism-based", "set-up": "dose 3000 mg/kg, route oral", "conditions": "in vivo"}, "[20]": {"test_system": "Rattus norvegicus", "assay": "Gastrointestinal toxicity in Wistar rat assessed as ulcer index at 3050 mg/kg, po by Rainsford's cold stress method", "assay_type": "organism-based", "set-up": "dose 3050 mg/kg, route oral", "conditions": "in vivo"}, "[21]": {"test_system": "Rattus norvegicus", "assay": "Gastrointestinal toxicity in Wistar rat assessed as ulcer index at 3647.7 mg/kg, po by Rainsford's cold stress method", "assay_type": "organism-based", "set-up": "dose 3647.7 mg/kg, route oral", "conditions": "in vivo"}, "[22]": {"test_system": "Rattus norvegicus", "assay": "Antiinflammatory activity against trinitrobenzenesulfonic acid-induced colitis in Wistar rat assessed as decrease in appearance of mucosal abscess at 100 mg/kg administered rectally measured 24 hrs after last dose on day 11 by haematoxylin/eosin staining in presence of sulfasalazine", "assay_type": "functional, organism-based", "set-up": "dose 100 mg/kg"}, "[23]": {"test_system": "Rattus norvegicus", "assay": "Antiinflammatory activity against trinitrobenzenesulfonic acid-induced colitis in Wistar rat assessed as decrease in inflammatory cell infiltration at 100 mg/kg administered rectallysmeasured 24 hrs after last dose on day 11 by haematoxylin/eosin staining", "assay_type": "functional, organism-based", "set-up": "dose 100 mg/kg"}},
  "note": "Calls of active or inactive are those of the source. The calls are words filed in the database; no cut-off is given here.",
  "data": [
    {"smiles": "Nc1ccc(O)c(C(=O)O)c1", "note": "[MESALAMINE]", "values": [
      {"measurement": "Activity", "setting": "[1]", "value": 47, "unit": "%"},
      {"measurement": "UI", "setting": "[2]", "value": 60.03}
    ]},
    {"smiles": "Nc1ccc(C(=O)O)c(O)c1", "note": "[AMINOSALICYLIC ACID]", "values": [
      {"measurement": "UI", "setting": "[2]", "value": 69.61}
    ]},
    {"smiles": "N[C@@H](Cc1ccc(O)cc1)C(=O)O", "values": [
      {"measurement": "Activity", "setting": "[3]", "value": "inactive"},
      {"measurement": "Activity", "setting": "[4]", "value": "Active"},
      {"measurement": "Activity", "setting": "[5]", "value": "inactive"},
      {"measurement": "Activity", "setting": "[6]", "value": "Active"},
      {"measurement": "Activity", "setting": "[7]", "value": "inactive"},
      {"measurement": "Activity", "setting": "[8]", "value": "Active"}
    ]},
    {"smiles": "O=C([O-])c1cc(/N=N/[C@@H](Cc2c[nH]c3ccccc23)C(=O)[O-])ccc1O.[Na+].[Na+]", "values": [
      {"measurement": "Activity", "setting": "[1]", "value": 62, "unit": "%"},
      {"measurement": "UI", "setting": "[9]", "value": 13},
      {"measurement": "Activity", "setting": "[10]", "value": 15, "unit": "%"},
      {"measurement": "logD", "setting": "[11]", "value": 0.26},
      {"measurement": "Activity", "setting": "[12]", "value": "Active"},
      {"measurement": "solubility", "setting": "[13]", "value": 280, "unit": "mg/mL"},
      {"measurement": "Activity", "setting": "[14]", "value": "Active"},
      {"measurement": "half-life at 250 ug/mL", "setting": "[15]", "value": 2.4, "unit": "h"},
      {"measurement": "Activity", "setting": "[16]", "value": 88, "unit": "%"},
      {"measurement": "Stability", "setting": "[17]", "value": "Stable"},
      {"measurement": "Activity", "setting": "[18]", "value": "Active"}
    ]},
    {"smiles": "O=C(O)c1cc(/N=N/c2ccc(S(=O)(=O)Nc3ccccn3)cc2)ccc1O", "note": "[SULFASALAZINE]", "values": [
      {"measurement": "Activity", "setting": "[1]", "value": 73, "unit": "%"},
      {"measurement": "Activity", "setting": "[12]", "value": "Active"},
      {"measurement": "Activity", "setting": "[14]", "value": "Active"},
      {"measurement": "Activity", "setting": "[18]", "value": "Active"},
      {"measurement": "UI", "setting": "[19]", "value": 9}
    ]},
    {"smiles": "O=C([O-])c1cc(/N=N/[C@H](Cc2ccccc2)C(=O)[O-])ccc1O.[Na+].[Na+]", "values": [
      {"measurement": "Activity", "setting": "[1]", "value": 62, "unit": "%"},
      {"measurement": "Activity", "setting": "[10]", "value": 15, "unit": "%"},
      {"measurement": "logD", "setting": "[11]", "value": 0.3},
      {"measurement": "UI", "setting": "[20]", "value": 11.3},
      {"measurement": "Activity", "setting": "[12]", "value": "Active"},
      {"measurement": "solubility", "setting": "[13]", "value": 250, "unit": "mg/mL"},
      {"measurement": "Activity", "setting": "[14]", "value": "Active"},
      {"measurement": "half-life at 250 ug/mL", "setting": "[15]", "value": 2.67, "unit": "h"},
      {"measurement": "Activity", "setting": "[16]", "value": 85, "unit": "%"},
      {"measurement": "Stability", "setting": "[17]", "value": "Stable"},
      {"measurement": "Activity", "setting": "[18]", "value": "Active"}
    ]},
    {"smiles": "O=C([O-])c1cc(/N=N/[C@@H](Cc2ccc(O)cc2)C(=O)[O-])ccc1O.[Na+].[Na+]", "values": [
      {"measurement": "Activity", "setting": "[1]", "value": 62, "unit": "%"},
      {"measurement": "logD", "setting": "[11]", "value": 0.35},
      {"measurement": "Activity", "setting": "[12]", "value": "Active"},
      {"measurement": "solubility", "setting": "[13]", "value": 260, "unit": "mg/mL"},
      {"measurement": "Activity", "setting": "[14]", "value": "Active"},
      {"measurement": "half-life at 250 ug/mL", "setting": "[15]", "value": 2.33, "unit": "h"},
      {"measurement": "Activity", "setting": "[16]", "value": 87, "unit": "%"},
      {"measurement": "UI", "setting": "[21]", "value": 10.76},
      {"measurement": "Stability", "setting": "[17]", "value": "Stable"},
      {"measurement": "Activity", "setting": "[18]", "value": "Active"}
    ]},
    {"smiles": "N[C@H](Cc1ccccc1)C(=O)O", "values": [
      {"measurement": "Activity", "setting": "[22]", "value": "Active"},
      {"measurement": "Activity", "setting": "[23]", "value": "Active"},
      {"measurement": "Activity", "setting": "[4]", "value": "Active"},
      {"measurement": "Activity", "setting": "[14]", "value": "Active"},
      {"measurement": "Activity", "setting": "[6]", "value": "Active"},
      {"measurement": "Activity", "setting": "[7]", "value": "Active"},
      {"measurement": "Activity", "setting": "[8]", "value": "Active"}
    ]},
    {"smiles": "N[C@@H](Cc1c[nH]c2ccccc12)C(=O)O", "values": [
      {"measurement": "Activity", "setting": "[22]", "value": "Active"},
      {"measurement": "Activity", "setting": "[3]", "value": "Active"},
      {"measurement": "Activity", "setting": "[23]", "value": "Active"},
      {"measurement": "Activity", "setting": "[4]", "value": "Active"},
      {"measurement": "Activity", "setting": "[5]", "value": "Active"},
      {"measurement": "Activity", "setting": "[6]", "value": "Active"},
      {"measurement": "Activity", "setting": "[7]", "value": "Active"},
      {"measurement": "Activity", "setting": "[8]", "value": "Active"}
    ]}
  ]
}
